Here are results for one compound from ChEMBL document CHEMBL1141830, “Stereoselective total synthesis of (3R,8S)-falcarindiol, a common polyacetylenic compound from umbellifers” (J Nat Prod, 1999).

Converted amounts (≈) assume the structure as drawn.

Data set [1] is described as follows: Antiproliferative activity against human MK1 cells by MTT assay. The settings on record: read-out: ED50 (the source's name). The format is cell-based. A general note: Tetrazolium assays rely on reduction of a dye to a coloured formazan, in cell work by metabolically active cells.
For data set [2], the system named is Staphylococcus aureus. In words: Antimicrobial activity against methicillin-resistant Staphylococcus aureus SAP0017. The format is functional.
The subject of a further data set is Bacillus subtilis. Put plainly: Antimicrobial activity against Bacillus subtilis Vernon. The format is functional.
The subject of a further data set is Escherichia coli. Put plainly: Antimicrobial activity against Escherichia coli DC2. The format is functional.
In data set [3] the test system is Staphylococcus aureus. Put plainly: Antimicrobial activity against methicillin-sensitive Staphylococcus aureus K147. The format is functional.

For `C=C[C@@H](O)C#CC#C[C@@H](O)/C=C\CCCCCCC` [FALCARINDIOL], in data set [1], the GI50 worked out at 3.2 µg/mL (≈ 12.3 µM). The MIC against Staphylococcus aureus [2] stood at 25 µg/mL (≈ 96 µM); in the data set with Bacillus subtilis it was 12.5 µg/mL (≈ 48 µM); in the data set with Escherichia coli, 2.5 µg/mL (≈ 9.6 µM); with Staphylococcus aureus [3] it was 12.5 µg/mL (≈ 48 µM).

Usually MIC stands for the smallest concentration in the dilution series that meets the test's criterion for growth inhibition. Lower therefore signals inhibition by little substance.
